Reference: ChEMBL document CHEMBL1127394, “Inhibition of topoisomerase II catalytic activity by pyridoacridine alkaloids from a Cystodytes sp. ascidian: a mechanism for the apparent intercalator-induced inhibition of topoisomerase II” (J Med Chem, 1994)

What was measured:
HCT-116 = test: Tested for the cytotoxicity to inhibit replication assay against the human colon tumor cell line HCT116; type: functional, cell-based
[1] = Differential cytotoxicity was determined from the ratio between BR1(IC50) and xrs-6 (IC50); type: functional
[2] = Concentration required to reduce ethidium bromide fluorescence to 50% of control in presence of calf thymus DNA
[3] = Tested for the cytotoxicity against the repair deficient xrs-6 chinese hamster ovary cell line; type: functional, cell-based; details: Cricetulus griseus
[4] = molecular target: DNA topoisomerase II (Homo sapiens) (UniProt P11388+Q02880); test: Effect of dose dependent inhibition of TOPO II-catalyzed kDNA decatenation in vitro; details: Crithidia fasciculata

IC90 [4]	Structure (SMILES)	IC50 (HCT-116)	Ratio [1]	Concentration for 50% ethidium displacement (C50) [2]	IC50 [3]
–	CC(C)=CC(=O)NCCc1c2c3c(ccnc3c3ncsc13)-c1ccccc1N2	8.3 µM	1	> 100 µM	80 µM
–	CC(C)=CC(=O)NCCc1c2c(c3nccc4c3c1Nc1ccccc1-4)NC(=O)CS2	16.3 µM	1	> 100 µM	8.1 µM
8.4 µM	CC(=O)NCCC1=CC(=O)c2nccc3c2c1nc1ccccc13	1.6 µM	1	54 µM	136 µM
33 µM	COc1cc(NS(C)(=O)=O)ccc1Nc1c2ccccc2nc2ccccc12 [AMSACRINE]	6.3 µM	4	–	0.24 µM
9.2 µM	CSC1=C(CCNC(C)=O)c2nc3ccccc3c3ccnc(c23)C1=O [DIPLAMINE]	< 1.4 µM	1	21 µM	71.2 µM
–	c1ccc2c(c1)nc1c3nc4ccccc4c4ccnc(c5nccc2c51)c43 [EILATIN]	5.3 µM	–	> 100 µM	–
68 µM	COc1cc([C@@H]2c3cc4c(cc3[C@@H](O[C@@H]3O[C@@H]5CO[C@@H](C)O[C@H]5[C@H](O)[C@H]3O)[C@H]3COC(=O)[C@H]23)OCO4)cc(OC)c1O [ETOPOSIDE]	2.5 µM	7	–	0.14 µM
–	CC(=O)NCCc1c2c3c(ccnc3c3ncsc13)-c1ccccc1N2 [KUANONIAMINE D]	7.8 µM	2	62 µM	88.9 µM
–	O=C1c2c(O)ccc(O)c2C(=O)c2c(NCCNCCO)ccc(NCCNCCO)c21 [MITOXANTRONE]	–	9	–	0.001 µM
–	CC(=O)NCCc1c2c(c3nccc4c3c1Nc1ccccc1-4)NC(=O)CS2 [SHERMILAMINE B]	13.8 µM	1	> 100 µM	14.9 µM
